Data reported in PubChem BioAssay AID330 (DTP/NCI, 2004).
Where “and” joins values, the source holds several entries; their conditions need not be identical. Equal values may be shown once. Toxic doses and inconclusive results are not listed. The calls were made as follows: active = survival T/C of 150% or more; inactive = T/C below 125% in these data. Square brackets hold non-standard residues; d marks the D form. Peptide text beside a SMILES is read from it. * marks the point of attachment. ξ: configuration not given here. ξF = NC(Cc1ccccc1)C(=O)O; Cbz = O=C(OCc1ccccc1)*; Sar = CNCC(=O)O

Tested on: P388 leukemia ip, CD2F1 mice, survival T/C
Assay: NCI In Vivo Anticancer Drug Screen. Data for tumor model P388 Leukemia (intraperitoneal) in CD2F1 (CDF1) mice
Conditions: endpoint: median survival time, higher = longer survival
Summary of the method: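 Mice carrying the transplanted tumor received test compound or vehicle. Survival was recorded in each group, and the value is the treated-group measurement divided by that of the vehicle-treated control group.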

[1] = dose: 60.0 mg/kg/injection, schedule: Q01DX005 (ip), vehicle: saline with Tween-80
[2] = dose: 120.0 mg/kg/injection, schedule: Q01DX005 (ip), vehicle: saline with Tween-80
[3] = dose: 240.0 mg/kg/injection, schedule: Q01DX005 (ip), vehicle: saline with Tween-80
[4] = dose: 25.0 mg/kg/injection, schedule: Q01DX009 (ip), vehicle: saline with Tween-80
[5] = dose: 50.0 mg/kg/injection, schedule: Q01DX009 (ip), vehicle: saline with Tween-80
[6] = dose: 50.0 mg/kg/injection, schedule: Q01DX009 (ip), vehicle: saline
[7] = dose: 100.0 mg/kg/injection, schedule: Q01DX009 (ip), vehicle: saline
[8] = dose: 100.0 mg/kg/injection, schedule: Q01DX009 (ip), vehicle: saline with Tween-80
[9] = dose: 200.0 mg/kg/injection, schedule: Q01DX009 (ip), vehicle: saline with Tween-80
[10] = dose: 50.0 mg/kg/injection, schedule: Q01DX009 (ip), vehicle: Klucel (hydroxypropylcellulose) (HPC)
[11] = dose: 100.0 mg/kg/injection, schedule: Q01DX009 (ip), vehicle: Klucel (hydroxypropylcellulose) (HPC)
[12] = dose: 200.0 mg/kg/injection, schedule: Q01DX009 (ip), vehicle: Klucel (hydroxypropylcellulose) (HPC)
[13] = dose: 100.0 mg/kg/injection, schedule: Q04DX003 (ip), vehicle: saline
[14] = dose: 12.5 mg/kg/injection, schedule: Q01DX009 (ip), vehicle: saline
[15] = dose: 12.5 mg/kg/injection, schedule: Q01DX005 (ip), vehicle: saline
[16] = dose: 25.0 mg/kg/injection, schedule: Q01DX005 (ip), vehicle: saline
[17] = dose: 50.0 mg/kg/injection, schedule: Q01DX005 (ip), vehicle: saline with Tween-80
[18] = dose: 50.0 mg/kg/injection, schedule: Q01DX005 (ip), vehicle: saline
[19] = dose: 200.0 mg/kg/injection, schedule: Q01DX005 (ip), vehicle: saline with Tween-80
[20] = dose: 100.0 mg/kg/injection, schedule: Q01DX005 (ip), vehicle: saline with Tween-80
[21] = dose: 100.0 mg/kg/injection, schedule: Q01DX005 (ip), vehicle: saline
[22] = dose: 12.5 mg/kg/injection, schedule: Q01DX005 (ip), vehicle: saline with Tween-80
[23] = dose: 25.0 mg/kg/injection, schedule: Q01DX005 (ip), vehicle: saline with Tween-80

Measured: T/C

c1ccc([S][Pb]([c]2ccccc2)([c]2ccccc2)[c]2ccccc2)cc1
inactive: dose: 6.25 mg/kg/injection, schedule: Q01DX001 (ip), vehicle: Klucel (hydroxypropylcellulose) (HPC) 96 % of control | dose: 12.5 mg/kg/injection, schedule: Q01DX001 (ip), vehicle: Klucel (hydroxypropylcellulose) (HPC) 122 % of control | dose: 25.0 mg/kg/injection, schedule: Q01DX001 (ip), vehicle: Klucel (hydroxypropylcellulose) (HPC) 114 % of control

CN1C(=O)C(CC(=O)O)NC1=S (configuration not stated)
inactive: dose: 60.0 mg/kg/injection, schedule: Q01DX005 (ip), vehicle: saline 101 % of control | dose: 120.0 mg/kg/injection, schedule: Q01DX005 (ip), vehicle: saline 103 % of control | dose: 240.0 mg/kg/injection, schedule: Q01DX005 (ip), vehicle: saline 104 % of control

Cc1ccc(NC(=O)c2cc3ccccc3c(N=Nc3ccccc3O)c2O)c(C)c1
inactive: [1] 94 % of control | [2] 109 % of control | [3] 97 % of control

Nc1ccc(Br)cc1C(=O)c1ccccc1
inactive: dose: 12.5 mg/kg/injection, schedule: Q01DX009 (ip), vehicle: saline with Tween-80 97 % of control | [4] 94 % of control | [5] 94 % of control | [6] 87 % of control | [7] 89 % of control | dose: 200.0 mg/kg/injection, schedule: Q01DX009 (ip), vehicle: saline 116 % of control

CC(Nc1ccccc1)C(=Nc1ccccc1)Nc1ccccc1 (configuration not stated)
inactive: dose: 50.0 mg/kg/injection, schedule: Q01DX005 (ip), vehicle: Klucel (hydroxypropylcellulose) (HPC) 110 % of control | dose: 100.0 mg/kg/injection, schedule: Q01DX005 (ip), vehicle: Klucel (hydroxypropylcellulose) (HPC) 113 % of control | dose: 200.0 mg/kg/injection, schedule: Q01DX005 (ip), vehicle: Klucel (hydroxypropylcellulose) (HPC) 113 % of control

N#Cc1ccc(C#N)cc1
inactive: [5] 90 % of control | dose: 50.0 mg/kg/injection, schedule: Q04DX003 (ip), vehicle: saline with Tween-80 91 % of control | [8] 100 % of control | dose: 100.0 mg/kg/injection, schedule: Q04DX003 (ip), vehicle: saline with Tween-80 91 % of control | [9] 100 % of control | dose: 200.0 mg/kg/injection, schedule: Q04DX003 (ip), vehicle: saline with Tween-80 87 % of control

COc1ccccc1C1CC(c2ccccc2)=Nc2ccccc2S1 (configuration not stated)
inactive: [10] 96 % of control | [11] 100 % of control | [12] 101 % of control

CCOC(=O)C1(c2ccccc2)CCCN(C)CC1 (configuration not stated)
inactive: dose: 25.0 mg/kg/injection, schedule: Q04DX003 (ip), vehicle: saline 107 % of control | dose: 50.0 mg/kg/injection, schedule: Q04DX003 (ip), vehicle: saline 107 % of control | [13] 98 % of control

O=c1ccc2ccc(OC3OC(CO)C(O)C(O)C3O)cc2o1 (configuration not stated)
inactive: dose: 1.0 mg/kg/injection, schedule: Q01DX009 (ip), vehicle: saline with Tween-80 106 % of control | dose: 2.0 mg/kg/injection, schedule: Q01DX009 (ip), vehicle: saline with Tween-80 100 % of control | dose: 4.0 mg/kg/injection, schedule: Q01DX009 (ip), vehicle: saline with Tween-80 104 % of control

CCN(CC)Cc1c(C)[nH]c2cc(N(C)C)ccc2c1=O
inactive: [10] 96 % of control | [11] 97 % of control

C1C2CC3C1C1OC3C21
inactive: dose: 60.0 mg/kg/injection, schedule: Q01DX005 (ip), vehicle: Klucel (hydroxypropylcellulose) (HPC) 100 % of control | dose: 120.0 mg/kg/injection, schedule: Q01DX005 (ip), vehicle: Klucel (hydroxypropylcellulose) (HPC) 99 % of control | dose: 240.0 mg/kg/injection, schedule: Q01DX005 (ip), vehicle: Klucel (hydroxypropylcellulose) (HPC) 100 % of control

CCCCCCCCCCCC[N+]1(CC)CCOCC1
inactive: dose: 3.12 mg/kg/injection, schedule: Q01DX009 (ip), vehicle: saline 106 % of control | dose: 6.25 mg/kg/injection, schedule: Q01DX009 (ip), vehicle: saline 101 % of control | [14] 101 % of control

C=CCOc1ccccc1C(=O)NC(O)(C(F)(F)F)C(F)(F)F
inactive: dose: 50.0 mg/kg/injection, schedule: Q04DX002 (ip), vehicle: suspension in saline 100 % of control | dose: 100.0 mg/kg/injection, schedule: Q04DX002 (ip), vehicle: suspension in saline 104 % of control | dose: 200.0 mg/kg/injection, schedule: Q04DX002 (ip), vehicle: suspension in saline 98 % of control

O=[N+]([O-])c1ccc2c(c1)c(S(=O)(=O)O)cc1nonc12
inactive: [15] 98 % of control | [16] 95 % of control | [17] 95 % of control | [18] 90 % of control | [19] 93 % of control

O=C1CN(c2ccc(Cl)cc2)C(=O)CN1/N=C/c1ccco1
inactive: [17] 103 % of control | [20] 107 % of control | [19] 100 % of control

CN1CCCCC1CCN1c2ccccc2Sc2ccc(S(C)=O)cc21 (configuration not stated)
inactive: [15] 100 % of control and 102 % of control and 105 % of control | [16] 100 % of control and 105 % of control and 114 % of control | [21] 102 % of control and 103 % of control

CN(CC(=O)NC(Cc1ccccc1)C(=O)O)C(=O)OCc1ccccc1 (configuration not stated) (Cbz-[Sar]-[ξF]-OH)
inactive: [17] 105 % of control | [20] 102 % of control | [19] 100 % of control

N#CCSCC(=O)c1ccccc1
inactive: [17] 105 % of control | [20] 105 % of control | [19] 112 % of control

CC(N)C(=O)NCC(=O)NCC(=O)O (configuration not stated)
inactive: [18] 100 % of control | [21] 106 % of control | dose: 200.0 mg/kg/injection, schedule: Q01DX005 (ip), vehicle: saline 99 % of control

COc1cc([C@@H]2c3cc4c(cc3[C@H](OC(=O)CCC(=O)O)[C@H]3COC(=O)[C@H]23)OCO4)cc(OC)c1OC
inactive: dose: 6.25 mg/kg/injection, schedule: Q01DX005 (ip), vehicle: saline with Tween-80 106 % of control | [22] 122 % of control | [23] 113 % of control

Cc1ccc(C2NC(c3ccc(C)cc3)C3CCCC2C3O)cc1 (configuration not stated)
inactive: [13] 100 % of control | dose: 200.0 mg/kg/injection, schedule: Q04DX003 (ip), vehicle: saline 97 % of control | dose: 400.0 mg/kg/injection, schedule: Q04DX003 (ip), vehicle: saline 95 % of control

O=C1c2cscc2C(=O)c2c(Cl)sc(Cl)c21
inactive: [4] 95 % of control

O=[N+]([O-])c1ccc(/C(=C/c2ccccc2)S(=O)(=O)C(Cl)(Cl)Cl)o1
inactive: [14] 102 % of control and 97 % of control | dose: 25.0 mg/kg/injection, schedule: Q01DX009 (ip), vehicle: saline 104 % of control and 92 % of control | [6] 104 % of control and 92 % of control | dose: 50.0 mg/kg/injection, schedule: Q01DX009 (ip), vehicle: suspension in saline 100 % of control | [7] 101 % of control and 112 % of control

CCn1c2ccccc2c2ccc(N=Cc3ccc4ccccc4c3)cc21
inactive: dose: 100.0 mg/kg/injection, schedule: Q04DX003 (ip), vehicle: saline + alcohol 92 % of control | dose: 200.0 mg/kg/injection, schedule: Q04DX003 (ip), vehicle: saline + alcohol 97 % of control | dose: 400.0 mg/kg/injection, schedule: Q04DX003 (ip), vehicle: saline + alcohol 97 % of control

COc1ccc2ccccc2c1/C=N/N1CCCCC1
inactive: [8] 100 % of control | [9] 104 % of control | dose: 400.0 mg/kg/injection, schedule: Q01DX009 (ip), vehicle: saline with Tween-80 95 % of control

NC(=S)CCCCCC(N)=S
inactive: [17] 103 % of control | [20] 111 % of control | [19] 103 % of control

CCOC(=O)NN(C(=O)OCC)c1c(NC)n(C)c(=O)n(C)c1=O
inactive: [10] 100 % of control | [11] 106 % of control | [12] 89 % of control

COc1ccc(/C=N/N2CN(C(CC(N)=O)C(=O)O)P(Nc3ncccn3)N=C2N)cc1OC (configuration not stated)
inactive: [1] 104 % of control | [2] 102 % of control | [3] 95 % of control

Nc1nc(N)c2cc([N+](=O)[O-])ccc2n1
inactive: [1] 93 % of control | [2] 94 % of control | [3] 96 % of control

CC1=CC(Cc2ccccc2)N(C)C(C#N)C1 (configuration not stated)
inactive: [22] 101 % of control | [23] 105 % of control | [17] 109 % of control and 116 % of control
